In patent US12521395B2, “Gem-disubstituted heterocyclic compounds and their use as IDH inhibitors” (NERVIANO MEDICAL SCIENCES S.R.L., priority 2019, dated 2026):
pIC50: −log10 of the molar value. Where two headings read alike, the source gives them in different places.

Experiments:
IDH1^R132C = IDH1^R132C (Homo sapiens, UniProt O75874, R132C); experiment: NADPH depletion assay (diaphorase/resazurin), IDH1 R132C; type: biochemical
Description: IDH mutated enzyme activity converting alpha-ketoglutarate to 2-hydroxyglutaric acid is measured using a NADPH depletion assay. In the assay the remaining cofactor is measured at the end of the reaction with the addition of a catalytic excess of diaphorase and resazurin, to generate a fluorescent signal in proportion to the amount of NADPH remaining. IDH1 WT enzyme as well as mutated isoforms IDH1^R132H, IDH1^R132C, and IDH2^R172K enzymes are commercially available proteins (see e.g. Sino Biological, Abcam, Active Motif or Creative BioMart).
IDH1^R132H homodimer enzyme are diluted to 8 nM, in 10 μL of Assay Buffer (150 mM NaCl, 50 mM Tris-HCl pH 7.6, 10 mM MgCl2, 0.001% Triton X-100, 4 mM β-mercaptoethanol); 0.2 μL of test compound, previously serially diluted 1 to 3, >10 experimental points from 1 mM in DMSO, is added and the mixture is incubated for 15 minutes at room temperature. The reaction is started with the addition of 10 μL of Substrate Mix (12 μM NADPH, 3.4 mM alpha-ketoglutarate in Assay Buffer) and the mixture is incubated for 60 minutes at room temperature. The reaction is terminated with the addition of 5 μl of Detection Buffer (100 μg/mL diaphorase, 30 μM resazurin, in IX Assay Buffer), and is incubated for 15 minutes before reading on a ViewLux as platereader at Ex544/Em590.
Compounds are assayed for their activity against IDH1^R132C following the same assay as above with the following modifications: IDH1^R132C and alpha-ketoglutarate final concentrations in the Assay Buffer is 2 nM and 0.14 mM, respectively.

[1] = system: cell lines HT-1080 (IDH1^R132C); experiment: Cellular assay: inhibition of 2HG production, LC-MS/MS; type: cell-based; conditions: Homo sapiens, 72 hr incubation, 2-HG in cell culture media, read-out: HT1080 2-HG IC50
Description: Cell lines HT-1080 (commercially available) are maintained in E-MEM 10% FCS and incubated at 37° C. in a humidified 5% CO2 atmosphere.
Cells are seeded into 96 well black flat bottom plates at a density of 500 cells/well in 100 μL complete medium. After 24 hr the medium is replaced with 200 μL of fresh medium and compounds (dissolved into DMSO) are administrated to the cells using D300E Digital Dispenser (Tecan).
After 72 hr of incubation 100 μL from each well are collected and used for 2HG (R(−)-2-hydroxyglutarate) quantification. Levels of 2-HG in cell culture media are determined by LC-MS/MS. Cell supernatants (100 μL/well) are treated with 1 M aqueous trichloroacetic acid containing 130 μM of the internal standard 2-HG-d3 (20 μL/well) in a 96-well plate. The plates are sealed, mildly vortexed for 60 minutes, centrifuged at 4,000 RPM for 15 minutes, placed in a refrigerated autosampler taking care not to shake them, and aliquots of the upper part of the samples are directly injected in the chromatographic system. Calibration standards are obtained by ten folds dilution of aqueous 2-HG stock solutions with blank cell culture medium and denatured exactly in the same way as described above for samples. Samples and standards are assayed for 2-HG by reversed phase chromatography on a C18 column eluted with aqueous 0.15% formic acid and briefly washed with 90% methanol at the end of the run. 2-HG is determined by negative ion electrospray ionization with the internal standard method on a triple quadrupole mass spectrometer monitoring the MRM transitions 147>129 (2-HG) and 150>132 (2-HG-d3).
2-HG inhibition was calculated by comparing treated versus control data using Assay Explore (Symyx) software, with IC50 determined using a sigmoidal fitting algorithm.

[2] = IDH1^R132C 2 nM, alpha-ketoglutarate 0.14 mM, read-out: IDH1^R132C IC50

Sequence of IDH1^R132C (O75874 whole entry R132C, canonical isoform): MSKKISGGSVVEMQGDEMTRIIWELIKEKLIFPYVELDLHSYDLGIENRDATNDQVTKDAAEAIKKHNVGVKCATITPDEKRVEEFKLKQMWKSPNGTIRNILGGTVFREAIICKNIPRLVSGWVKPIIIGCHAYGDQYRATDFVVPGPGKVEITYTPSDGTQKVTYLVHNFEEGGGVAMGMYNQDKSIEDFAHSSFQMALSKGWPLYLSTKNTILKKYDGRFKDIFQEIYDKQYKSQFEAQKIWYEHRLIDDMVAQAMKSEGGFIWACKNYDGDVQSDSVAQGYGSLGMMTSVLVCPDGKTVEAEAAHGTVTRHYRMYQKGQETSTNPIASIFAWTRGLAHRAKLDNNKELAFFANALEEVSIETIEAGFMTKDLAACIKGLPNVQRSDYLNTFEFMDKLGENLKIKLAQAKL

Row | SMILES | pIC50 (IDH1^R132C; [2]) | pIC50 [1] | pIC50 (IDH1^R132C)
1 | C=CC(=O)N1CCN(C2(c3ccc([C@H](C)Nc4ncc5ccc(=O)n(C(C)C)c5n4)cc3)CCCCC2)CC1 [cpd 20, 2-{[(1S)-1-{4-[1-(4-acryloylpiperazin-1-yl)cyclohexyl]phenyl}ethyl]amino}-8-(propan-2-yl)pyrido[2,3-d]pyrimidin-7(8H)-one] | – | 9.00 | 9.00
2 | CC(C)n1c(=O)ccc2cnc(N[C@@H](C)c3ccc(C4(N5CCN(C(=O)CCl)CC5)CCOCC4)cc3)nc21 [cpd 22, 2-{[(1S)-1-(4-{4-[4-(chloroacetyl)piperazin-1-yl]tetrahydro-2H-pyran-4-yl}phenyl)ethyl]amino}-8-(propan-2-yl) pyrido[2,3-d]pyrimidin-7(8H)-one] | 8.10 | 6.92 | –
3 | C=C(CN1CCN(C2(c3ccc([C@H](C)Nc4ncc5ccc(=O)n(C(C)C)c5n4)cc3)CCOCC2)CC1)C(=O)O [cpd 7, 2-{[4-(4-{4-[(1S)-1-{[7-oxo-8-(propan-2-yl)-7,8-dihydropyrido[2,3-d]pyrimidin-2-yl]amino}ethyl]phenyl}tetrahydro-2H-pyran-4-yl)piperazin-1-yl]methyl}prop-2-enoic acid] | 7.40 | 6.25 | –
4 | C=CC(=O)N1CCN(C2(c3ccc([C@H](C)Nc4ncc5ccc(=O)n(C(C)C)c5n4)cc3)CCOC2)CC1 (stereo partly drawn) [cpd 17, 2-{[(1S)-1-{4-[3-(4-acryloylpiperazin-1-yl)tetrahydrofuran-3-yl]phenyl}ethyl]amino}-8-(propan-2-yl)pyrido[2,3-d]pyrimidin-7(8H)-one] | 7.59 | 8.31 | –
5 | C=CC(=O)N1CCN([C@@](C)(CN2CCOCC2)c2ccc([C@H](C)Nc3ncc4ccc(=O)n(C(C)C)c4n3)cc2)CC1 [cpd 43, 2-{[(1S)-1-{4-[(2R)-2-(4-acryloylpiperazin-1-yl)-1-(morpholin-4-yl)propan-2-yl]phenyl}ethyl]amino}-8-(propan-2-yl) pyrido[2,3-d]pyrimidin-7(8H)-one] | 7.82 | 8.52 | –
6 | C=CC(=O)N1CCN(C2(c3ccc([C@H](C)Nc4ncc5ccc(=O)n(C(C)C)c5n4)cn3)CCOCC2)CC1 [cpd 12, 2-{[(1S)-1-{6-[4-(4-acryloylpiperazin-1-yl)tetrahydro-2H-pyran-4-yl]pyridin-3-yl}ethyl]amino}-8-(propan-2-yl)pyrido[2,3-d]pyrimidin-7(8H)-one] | 6.93 | 7.47 | –
7 | [2H]C([2H])=C([2H])C(=O)N1CCN(C2(c3ccc([C@H](C)Nc4ncc5ccc(=O)n(C(C)C)c5n4)cc3)CCOCC2)CC1 [cpd 51, 8-(propan-2-yl)-2-({(1S)-1-[4-(4-{4-[(^2H3)prop-2-enoyl]piperazin-1-yl}tetrahydro-2H-pyran-4-yl)phenyl]ethyl}amino) pyrido[2,3-d]pyrimidin-7(8H)-one] | 8.15 | 8.62 | –
8 | C=CC(=O)N1CC(N(C)C2(c3ccc([C@H](C)Nc4cc5c(ccc(=O)n5C(C)C)cn4)cc3)CCC(F)(F)CC2)C1 [cpd 61, 7-{[(1S)-1-(4-{1-[(1-acryloylazetidin-3-yl)(methyl)amino]-4,4-difluorocyclohexyl}phenyl)ethyl]amino}-1-(propan-2-yl)-1,6-naphthyridin-2(1H)-one] | 8.22 | – | –

Further compounds by rising pIC50 (IDH1^R132C; [2]), results first:

Row | pIC50 (IDH1^R132C; [2]) | pIC50 [1] | SMILES | pIC50 (IDH1^R132C)
9 | 5.88 | 5.71 | CCC(=O)N1CCN(C2(c3ccc([C@H](C)Nc4ncc5ccc(=O)n(C(C)C)c5n4)cc3)CCOCC2)CC1 [cpd 8, 2-{[(1S)-1-{4-[4-(4-propanoylpiperazin-1-yl)tetrahydro-2H-pyran-4-yl]phenyl}ethyl]amino}-8-(propan-2-yl)pyrido[2,3-d]pyrimidin-7(8H)-one] | –
10 | 6.90 | 7.17 | C=CC(=O)N1CCN(C2(c3ccc([C@@H](C)Nc4ncc5ccc(=O)n(C(C)C)c5n4)cc3)CCOCC2)CC1 [cpd 9, 2-{[(1R)-1-{4-[4-(4-acryloylpiperazin-1-yl)tetrahydro-2H-pyran-4-yl]phenyl}ethyl]amino}-8-(propan-2-yl)pyrido[2,3-d]pyrimidin-7(8H)-one] | –
11 | 7.33 | 7.19 | C=CC(=O)N1CC(N(C)C2(c3ccc([C@H](C)Nc4cc5c(ccc(=O)n5C(C)C)cn4)cc3)CCOCC2)C1 [cpd 48, 7-{[(1S)-1-(4-{4-[(1-acryloylazetidin-3-yl)(methyl)amino]tetrahydro-2H-pyran-4-yl}phenyl)ethyl]amino}-1-(propan-2-yl)-1,6-naphthyridin-2(1H)-one] | –
12 | 7.57 | 7.89 | C=CC(=O)N1CCN(C2(c3ccc([C@H](C)Nc4ncc5ccc(=O)n(C(C)C)c5n4)cc3)COC2)CC1 [cpd 3, 2-{[(1S)-1-{4-[3-(4-acryloylpiperazin-1-yl)oxetan-3-yl]phenyl}ethyl]amino}-8-(propan-2-yl)pyrido[2,3-d]pyrimidin-7(8H)-one] | –
13 | 7.59 | 7.33 | C=CC(=O)N1CC(N(C)C2(c3ccc([C@H](C)Nc4ncc5ccc(=O)n(C(C)C)c5n4)cc3)CCOCC2)C1 [cpd 28, 2-{[(1S)-1-(4-{4-[(1-acryloylazetidin-3-yl)(methyl)amino]tetrahydro-2H-pyran-4-yl}phenyl)ethyl]amino}-8-(propan-2-yl) pyrido[2,3-d]pyrimidin-7(8H)-one] | –
14 | 7.74 | 7.83 | C=CC(=O)N1CCN(C2(c3ccc(C(C)(C)Nc4ncc5ccc(=O)n(C(C)C)c5n4)cc3)CCOCC2)CC1 [cpd 40, 2-[(2-{4-[4-(4-acryloylpiperazin-1-yl)tetrahydro-2H-pyran-4-yl]phenyl}propan-2-yl)amino]-8-(propan-2-yl)pyrido[2,3-d]pyrimidin-7(8H)-one] | –
15 | 7.77 | 8.52 | C=CC(=O)N1CCN(C2(c3ccc(C4(Nc5ncc6ccc(=O)n(C(C)C)c6n5)CC4)cc3)CCCC2)CC1 [cpd 49, 2-[(1-{4-[1-(4-acryloylpiperazin-1-yl)cyclopentyl]phenyl}cyclopropyl)amino]-8-(propan-2-yl)pyrido[2,3-d]pyrimidin-7(8H)-one] | –
16 | 8.23 | 8.28 | C=CC(=O)N1CCN(C2(c3ccc([C@H](C)Nc4ncc5ccc(=O)n(C(C)C)c5n4)cc3)CCN(C(C)=O)CC2)CC1 [cpd 6, 2-{[(1S)-1-{4-[1-acetyl-4-(4-acryloylpiperazin-1-yl)piperidin-4-yl]phenyl}ethyl]amino}-8-(propan-2-yl)pyrido[2,3-d]pyrimidin-7(8H)-one] | –
17 | 8.51 | 8.52 | C=CC(=O)N1CCN(C2(c3ccc([C@H](C)Nc4nc(N)c5ccc(=O)n(C(C)C)c5n4)cc3)CCOCC2)CC1 [cpd 19, 2-{[(1S)-1-{4-[4-(4-acryloylpiperazin-1-yl)tetrahydro-2H-pyran-4-yl]phenyl}ethyl]amino}-4-amino-8-(propan-2-yl) pyrido[2,3-d]pyrimidin-7(8H)-one] | –
18 | 8.52 | 8.68 | C=CC(=O)N1CCN(C2(c3ccc([C@H](C)Nc4ncc5c(n4)N(CC)C(=O)OC5)cc3)CCOCC2)CC1 [cpd 24, 7-{[(1S)-1-{4-[4-(4-acryloylpiperazin-1-yl)tetrahydro-2H-pyran-4-yl]phenyl}ethyl]amino}-1-ethyl-1,4-dihydro-2H-pyrimido[4,5-d][1,3]oxazin-2-one] | –
19 | 8.89 | 9.52 | C=CC(=O)N1CCN(C2(c3ccc([C@H](C)Nc4ncc5ccc(=O)n(C(C)C)c5n4)cc3)CCCC2)CC1 [cpd 16, 2-{[(1S)-1-{4-[1-(4-acryloylpiperazin-1-yl)cyclopentyl]phenyl}ethyl]amino}-8-(propan-2-yl)pyrido[2,3-d]pyrimidin-7(8H)-one] | –
